We go through one compound from patent US20100212049A1, “Compositions and Methods of Use of Response Regulators” (Pioneer Hi-Bred International, Inc., priority 2005, published 2010).

The subject of experiment [1] is Zm response regulator 6 (ZmRR6). In words: Lynx expression experiment, leaf discs floated on BA vs water: ZmRR6. Particulars: 6 h. In kind it is cell-based, maize B73. On the procedure:
(§1) A Lynx experiment was performed to identify genes in the cytokinin signaling and metabolism pathway, as well as the carbohydrate pathway, whose expression is modulated in response to elevated cytokinin levels. One goal of this experiment was to identify response regulators that could be involved in the cytokinin-signaling pathway and could potentially act as Ckx1 transcriptional regulators.
(§2) Two experiments were performed: one was an initial experiment to determine the time course for BA induction of Ckx1 transcripts in leaf discs, while the second experiment used the time-course information to optimize tissue harvest for the actual Lynx study. For the time-course experiment, leaf discs (5 mm in diameter) were collected from fully expanded leaves of 8-week old maize plants (inbred B73) and were incubated in petri dishes containing water or water plus 10 μM BA for different time periods at 25° C. For the Lynx experiment ˜300 leaf-discs were punched from ear leaves collected from 5 different maize B73 plants at flowering. Half of the discs were floated in a large petri dish on a solution containing 10 μM BA; the other half were floated on distilled water. Discs were incubated for 6 h at 25° C. in the light, blotted-dried, frozen in liquid nitrogen, and then submitted for Lynx analysis.
(§3) Nevertheless, differences in levels of expression of multiple genes were detected and these are presented as genes relevant to cytokinin response, isoprenoid (or terpenoid) biosynthesis, and cell division (Table 2).
(§4) A ˜30-fold increase in Ckx1 transcripts was measured after 6 h of BA application (Table 2). […] We also identified two new response regulators whose expression is induced by BA, ZmRRS and ZmRR6 (Table 2).

The subject of experiment [2] is Ckx1 transcripts. In words: Time-course of Ckx1 transcript induction by BA in maize leaf discs (Northern blot). It counts as cell-based, maize (inbred B73). Particulars: 10 μM BA, after 6 hours, 25° C. On the procedure:
as §2
Time-course experiment: This perfunctory experiment was designed to learn the kinetics of Ckx1 transcript accumulation in response to BA. Ckx1 transcript levels were induced […] after 6 hours (FIG. 1).

Experiment [3] relates to Ckx1 transcripts. The experiment can be described thus: Lynx expression experiment, leaf discs floated on BA vs water: Ckx1. The following applies: 10 μM BA, 6 h. It counts as cell-based, maize B73. The procedure:
as §1
as §2, with “Half of the discs were floated in a large petri dish on a solution containing 10 μM BA; the other half were floated on distilled water. Discs were incubated for 6 h at 25° C. in the light, blotted-dried, frozen in liquid nitrogen, and then submitted for Lynx analysis.” left out
as §3
A ˜30-fold increase in Ckx1 transcripts was measured after 6 h of BA application (Table 2). […]

The subject of experiment [4] is Ckx1. The following applies: maize leaf discs incubated with BA, compared to untreated controls; cited from earlier work.
Experiment [5] has as its system Zm Response regulator 5 (ZmRR5). The experiment can be described thus: Lynx expression experiment, leaf discs floated on BA vs water: ZmRR5. It counts as cell-based, maize B73. Particulars: 6 h. The procedure: as §1, §2, §3, §4

`c1ccc(CNc2ncnc3nc[nH]c23)cc1` [BA, benzyladenine]: the Up/down regulation entry in experiment [1] (10 μM BA vs water) and in experiment [5] (10 μM BA vs water) was “up” each time. For the same compound, the “Ratio BA/Ctrl” value in experiment [1] (10 μM BA vs water, ppm ratio) amounted to 8.75; in experiment [5] (10 μM BA vs water, ppm ratio) it was 8.50. Moreover, the “Cldba (treated sample) expression” value was determined as 70 ppm in experiment [1] (10 μM BA, Lynx) and 395 ppm in experiment [5] (10 μM BA, Lynx). Further, the “Ckx1 transcript levels induced” value in experiment [2] is about 15 fold. For the same compound, in experiment [3], the “increase in Ckx1 transcripts” value is listed as about 30 fold. The Ckx1 induced in experiment [4] is recorded as about 60 fold.
